Key:
HCV polymerase = biological target: T1, HCV polymerase (Hepatitis C virus genotype 1b, UniProt Q9WMX2); test: biochemical; details: polymerase assay of Biological Example 1; read-out: NS5B polymerase IC50
T1 construct: (His)6 (C)

[1] = system: HCV replicon I389luc-ubi-neo/NS3-3'/ET in ET (Huh-lucubineo-ET) cells; test: Replicon assay (Biological Example 2), luciferase read-out; format: cell-based; details: Hepatitis C virus, luciferase activity 48 hours after compound addition
Experimental: A cell line, ET (Huh-lucubineo-ET) is used for screening of compounds for inhibiting HCV RNA dependent RNA polymerase. The ET cell line is stably transfected with RNA transcripts harboring a I389luc-ubi-neo/NS3-3′/ET; replicon with firefly luciferase-ubiquitin-neomycin phosphotransferase fusion protein and EMCV-IRES driven NS3-5B polyprotein containing the cell culture adaptive mutations (E1202G; […]; K1846T) (Krieger at al, 2001 and unpublished). The ET cells are grown in DMEM (Dulbeco's Modified Eagle's Medium), supplemented with 10% fetal calf serum, 2 mM Glutamine, Penicillin (100 IU/mL)/Streptomycin (100 μg/mL), 1× nonessential amino acids, and 250 μg/mL G418 (“Geneticin”). Reagents are all available through Life Technologies (Bethesda, Md.). The cells are plated at 0.5-1.0×10^4 cells/well in the 96 well plates and incubated for 24 hrs before adding test compound. The compounds are added to the cells to achieve a final concentration of 0.1 nM to 50 μM and a final DMSO (dimethylsulfoxide) concentration of 0.5%. Luciferase activity is measured 48 hours later by adding a lysis buffer and the substrate (Catalog number Glo-lysis buffer E2661 and Bright-Glo luciferase system E2620 Promega, Madison, Wis.). Cells should not be too confluent during the assay. Percent inhibition of replication data is plotted relative to no compound control. To determine the EC50 (effective concentration at which 50% of the maximum inhibition is observed), a 10 point, 3-fold serial dilution for each compound is used, which spans a concentration range of 1000 fold. EC50 values were calculated by fitting % inhibition at each concentration to the following equation:
% inhibition=100%/[(EC50/[I])^b+1]
where b is Hill's coefficient.

| SMILES | IC50 (HCV polymerase) [nM] | IC50 [1] [nM] |
| --- | --- | --- |
| CNC(=O)c1c(-c2ccc(C3CC3)cc2)oc2nc(N(CCCS(C)(=O)=O)S(C)(=O)=O)c(C3CC3)cc12 [Example 24.9, 5-cyclopropyl-2-(4-cyclopropylphenyl)-N-methyl-6-(N-(3-(methylsulfonyl)propyl)methylsulfonamido)furo[2,3-b]pyridine-3-carboxamide] | 3 | ≤ 100 |
| CNC(=O)c1c(-c2ccc(F)cc2)oc2nc(N(CCCOCCOC)S(C)(=O)=O)c(C3CC3)cc12 [Example 25, 5-cyclopropyl-2-(4-fluorophenyl)-6-(N-(3-(2-methoxyethoxy)propyl)methylsulfonamido)-N-methylfuro[2,3-b]pyridine-3-carboxamide] | 5 | ≤ 100 |
| CNC(=O)c1c(-c2ccc(Cl)cc2)oc2nc(N(CCCC(C)(C)C(=O)O)S(C)(=O)=O)c(C3CC3)cc12 [Example 28.3, 5-(N-(2-(4-chlorophenyl)-5-cyclopropyl-3-(methylcarbamoyl)furo[2,3-b]pyridin-6-yl)methylsulfonamido)-2,2-dimethylpentanoic acid] | 2 | ≤ 100 |
| CNC(=O)c1c(-c2ccc(C3CC3)cc2)oc2nc(N(CCCC3CCCS3(=O)=O)S(C)(=O)=O)c(C3CC3)cc12 (centres unmarked) [Example 25.4, 5-Cyclopropyl-2-(4-cyclopropyl-phenyl)-6-{[3-(1,1-dioxo-tetrahydro-thiophen-2-yl)-propyl]-methanesulfonyl-amino}-furo[2,3-b]pyridine-3-carboxylic acid methylamide] | 1 | ≤ 100 |
| CNC(=O)c1c(-c2ccc(F)cc2)oc2nc(N(CCCC3CCCS3(=O)=O)S(C)(=O)=O)c(C3CC3)cc12 (single isomer, unassigned) [Example 24.5, 5-Cyclopropyl-6-{[3-(1,1-dioxo-tetrahydrothiophen-2-yl)-propyI]-methanesulfonyl-amino}-2-(4-fluoro-phenyl)-furo[2,3-b]pyridine-3-carboxylic acid methylamide] | 1 | ≤ 100 |
| CNC(=O)c1c(-c2ccc(Cl)cc2)oc2nc(N(CCC[C@@H]3CCCS3(=O)=O)S(C)(=O)=O)c(C3CC3)cc12 [Example 24.8, 2-(4-Chloro-phenyl)-5-cyclopropyl-6-{[3-((R)-1,1-dioxo-tetrahydrothiophen-2-yl)-propyl]-methanesulfonyl-amino}-furo[2,3-b]pyridine-3-carboxylic acid methylamide] | 1 | ≤ 100 |
| CNC(=O)c1c(-c2ccc(C)cc2)oc2nc(N(CCCC3(C(=O)O)CCCC3)S(C)(=O)=O)c(C3CC3)cc12 [Example 28, 1-(3-(N-(5-cyclopropyl-3-(methylcarbamoyl)-2-p-tolylfuro[2,3-b]pyridin-6-yl)methylsulfonamido)propyl) cyclopentanecarboxylic acid] | 1 | ≤ 100 |
| CNC(=O)c1c(-c2ccc(C3CC3)cc2F)oc2nc(N(C)S(C)(=O)=O)c(C3CC3)cc12 [Example 2.98, 5-cyclopropyl-2-(4-cyclopropyl-2-fluorophenyl)-N-methyl-6-(N-methylmethylsulfonamido)furo[2,3-b]pyridine-3-carboxamide] | 5 | ≤ 100 |
| C=Cc1cc2c(C(=O)NC)c(-c3ccc(F)cc3)oc2nc1N(CCCC(=O)OC)S(C)(=O)=O [Example 24.2, methyl 4-(N-(2-(4-fluorophenyl)-3-(methylcarbamoyl)-5-vinylfuro[2,3-b]pyridin-6-yl)methylsulfonamido) butanoate] | 42 | ≤ 100 |
| CNC(=O)c1c(-c2ccc(F)cc2)oc2nc3c(cc12)[C@@H](C)C[C@H](O)CN3S(C)(=O)=O (single isomer, unassigned) [Example 34] | 9 | ≤ 100 |
| CNC(=O)c1c(-c2ccc(F)cc2)oc2nc(N(CCC(C)S(C)(=O)=O)S(C)(=O)=O)c(C3CC3)cc12 (centres unmarked) [Example 26.6, 5-cyclopropyl-2-(4-fluorophenyl)-N-methyl-6-(N-(3-(methylsulfonyl)butyl)methylsulfonamido)furo[2,3-b]pyridine-3-carboxamide] | 4 | ≤ 100 |
| CNC(=O)c1c(-c2ccc(F)cc2)oc2nc(N(CCCC(=O)O)S(C)(=O)=O)c(I)cc12 [Example 18.95, 4-(N-(2-(4-fluorophenyl)-5-iodo-3-(methylcarbamoyl)furo[2,3-b]pyridin-6-yl)methylsulfonamido)butanoic acid] | 112 | ≥ 5000 |
| CNC(=O)c1c(-c2ccc(C)cc2)oc2nc(N(CCCCCC(=O)O)S(C)(=O)=O)c(C3CC3)cc12 [Example 27.9, 6-(N-(5-cyclopropyl-3-(methylcarbamoyl)-2-p-tolylfuro[2,3-b]pyridin-6-yl)methylsulfonamido) hexanoic acid] | 2 | ≤ 100 |
| CNC(=O)c1c(-c2ccc(F)cc2)oc2nc(N(CCCCS(C)(=O)=O)S(C)(=O)=O)c(I)cc12 [Example 18.997, 2-(4-fluorophenyl)-5-iodo-N-methyl-6-(N-(4-(methylsulfonyl)butyl)methylsulfonamido)furo[2,3-b]pyridine-3-carboxamide] | 22 | ≤ 100 |
| CNC(=O)c1c(-c2ccc(Cl)cc2)oc2nc(N(CCCCS(C)(=O)=O)S(C)(=O)=O)c(C3CC3)cc12 [Example 25.8] | 1 | ≤ 100 |
| CNC(=O)c1c(-c2ccc(F)cc2)oc2nc(N(CCCS(C)(=O)=O)S(C)(=O)=O)c(C3CC3)cc12 [Example 24.01] | 1 | ≤ 100 |
| CNC(=O)c1c(-c2ccc(Cl)cc2F)oc2nc(N(C)S(C)(=O)=O)c(I)cc12 [Example 2.95, 2-(4-chloro-2-fluorophenyl)-5-iodo-N-methyl-6-(N-methylmethylsulfonamido)furo[2,3-b]pyridine-3-carboxamide] | 8 | ≤ 100 |
| CNC(=O)c1c(-c2ccc(F)cc2)oc2nc3c(cc12)C(C)CCCN3S(C)(=O)=O (centres unmarked) [Example 30, 2-(4-Fluoro-phenyl)-9-methanesulfonyl-5-methyl-6,7,8,9-tetrahydro-5H-1-oxa-9,10-diaza-cyclohepta[f]indene-3-carboxylic acid methylamide] | 62 | ≤ 100 |
| CCc1cc2c(C(=O)NC)c(-c3ccc(F)cc3)oc2nc1N(CCCC(C)=O)S(C)(=O)=O [Example 22.95, 5-ethyl-2-(4-fluorophenyl)-N-methyl-6-(N-(4-oxopentyl)methylsulfonamido)furo[2,3-b]pyridine-3-carboxamide] | 40 | ≤ 100 |
| CNC(=O)c1c(-c2ccc(F)cc2)oc2nc(N(C)S(C)(=O)=O)c(CCCC(=O)NS(C)(=O)=O)cc12 [Example 4.5, 2-(4-fluorophenyl)-N-methyl-6-(N-methylmethylsulfonamido)-5-(4-(methylsulfonamido)-4-oxobutyl)furo[2,3-b]pyridine-3-carboxamide] | 206 | ≥ 5000 |
| C=Cc1cc2c(C(=O)NC)c(-c3ccc(F)cc3)oc2nc1N(CCCCC(=O)OC)S(C)(=O)=O [Example 24.3, methyl 5-(N-(2-(4-fluorophenyl)-3-(methylcarbamoyl)-5-vinylfuro[2,3-b]pyridin-6-yl)methylsulfonamido) pentanoate] | 57 | ≤ 100 |
| CNC(=O)c1c(-c2ccc(F)cc2)oc2nc3c(cc12)C(C)CCCCN3S(C)(=O)=O (centres unmarked) [Example 36.3, 2-(4-Fluoro-phenyl)-10-methanesulfonyl-5-methyl-5,6,7,8,9,10-hexahydro-1-oxa-10,11-diaza-cycloocta[f]indene-3-carboxylic acid methylamide] | 70 | ≤ 100 |
| CNC(=O)c1c(-c2ccc(F)cc2)oc2nc3c(cc12)C(C)OCCN3S(C)(=O)=O (centres unmarked) [Example 36.2, 2-(4-Fluoro-phenyl)-9-methanesulfonyl-5-methyl-5,7,8,9-tetrahydro-1,6-dioxa-9,10-diaza-cyclohepta[f]indene-3-carboxylic acid methylamide] | 35 | ≤ 100 |
| CNC(=O)c1c(-c2ccc(C)cc2)oc2nc(N(CC[C@H]3C[C@@H]3C(=O)O)S(C)(=O)=O)c(C3CC3)cc12 [Example 28.2, (1S,2R)-2-(2-(N-(5-cyclopropyl-3-(methylcarbamoyl)-2-p-tolylfuro[2,3-b]pyridin-6-yl)methylsulfonamido)ethyl) cyclopropanecarboxylic acid] | 2 | ≤ 100 |
| CNC(=O)c1c(-c2ccc(C)cc2)oc2nc(N(CCCS(C)(=O)=O)S(C)(=O)=O)c(I)cc12 [Example 18.994, 5-iodo-N-methyl-6-(N-(3-(methylsulfonyl)propyl)methylsulfonamido)-2-p-tolylfuro[2,3-b]pyridine-3-carboxamide] | 14 | ≤ 100 |

Reference: patent US20120015907A1, “Furopyridine compounds and uses thereof” (NOVARTIS AG, priority 2010, published 2012)
